Test [1] has as its system RF strain of HIV (CEM-SS cells). Description: Cell Culture Anti-HIV Activity (cell viability, formazan). The class given is cell-based. To be noted: Human immunodeficiency virus 1, CEM-SS, 144 h, CEM-SS cells, RF strain of HIV, multiplicity of infection 0.04, 6 days at 37° C., 450 nm; read-out: HIV (CEM Cells) IC50. The method in brief: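 CEM-SS cells (5000/well) infected with HIV RF at MOI 0.04, exposed to half-log serial compound dilutions, incubated 6 days at 37° C. Viability read by tetrazolium reduction to formazan, absorbance 450 nm. IC50 is the concentration raising formazan in infected cells to 50% of uninfected, drug-free cells.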

The next test concerns the target T1, HIV protease (Human immunodeficiency virus type 1 group M subtype B, UniProt P04585).
T1 construct: and purified protease
Description: HIV Protease Assay. The note with it: pH 5.5, 10 μM inhibitor, 4% DMSO, 450 μM substrate, pH 5.5, 30 minutes at 37° C., RP-HPLC; read-out: HIV Protease % Inhibition at 10 μM. The class given is biochemical. The method in brief:
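Purified protease cleaved 450 μM octapeptide substrate in 50 mM sodium acetate pH 5.5 with 100 μg/ml BSA for 30 minutes at 37° C; product analyzed by reverse-phase HPLC at UV220 after H3PO4 quench. Inhibitors tested at final 10 μM with 4% DMSO.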

Data on 13 compounds can be found in patent publication US5760036A, “Aminediol protease inhibitors” (E. R. Squibb & Sons, Inc., priority 1995, dated 1998).

A word on the IC50: it is the concentration needed to halve the response being measured. The inhibition is the relative decrease from the control value, in per cent. On to `CC(C)(C)OC(=O)N[C@@H](Cc1ccccc1)[C@H](O)CNC[C@@H](O)[C@H](Cc1ccccc1)NC(=O)[C@@H](NC(=O)OCc1nc2ccccc2o1)C(C)(C)C` [Compound 257, [S-[1R*,2S*(2S*,3R*)]]-[2,2-Dimethyl-1-[[[3-[[3-[[(1,1-dimethylethoxy)carbonyl]amino]-2-hydroxy-4-phenylbutyl]-amino]-2-hydroxy-1-(phenylmethyl)propyl]amino]-carbonyl]propyl]carbamic acid, (2-benzoxazolyl)methyl ester], for which the IC50 in test [1] was 30 nM. Further, the inhibition at 10 µM at HIV protease was found to be 99%.

As to `COC(=O)N[C@H](C(=O)N[C@@H](Cc1ccccc1)[C@H](O)CNC[C@@H](O)[C@H](Cc1ccccc1)NC(=O)[C@@H](NC(=O)OC)C(C)(C)C)C(C)(C)C` (relative stereo) [Compound 324, 1S-(1S*,2R*)-N, N'-Iminobis[2-hydroxy-1-(phenylmethyl)-3,1-propanediyl]bis(imino)bis[1-(1,1-dimethylethyl)-2-oxo-2,1-ethanediyl]]biscarbamic acid, dimethyl ester], the 50% inhibitory concentration (IC50) in test [1] was 220 nM. Besides, the inhibition at 10 µM on HIV protease is 100%.

`CC(C)(C)OC(=O)N[C@@H](Cc1ccccc1)[C@H](O)CNC[C@@H](O)[C@H](Cc1ccccc1)NC(=O)OC1CCS(=O)(=O)C1` (stereo partly drawn) [Compound 360, [1S-(1R*,2S*)]-[Iminobis[2-hydroxy-1-(phenylmethyl)-3,1-propanediyl)]bis[carbamic acid], 1,1-dimethylethyl tetrahydro-1,1-dioxo-3-thienyl ester]: in test [1], the IC50 was 450 nM. Further, at HIV protease, the inhibition at 10 µM worked out at 96%.

`CC(C)[C@H](NC(=O)NCc1nc2ccccc2[nH]1)C(=O)N[C@@H](Cc1ccccc1)[C@H](O)CNC[C@@H](O)[C@H](Cc1ccccc1)NC(=O)OC(C)(C)C` (relative stereo) [Compound 273, [1R*,2S*(2S*,3R*)]-N^2-[[(1H-Benzimidazol-2-ylmethyl)amino]carbonyl]-N-[3-[[3-[[(1,1-dimethylethoxy)carbonyl]amino]-2-hydroxy-4-phenylbutyl]amino]-2-hydroxy-1-(phenylmethyl)propyl]-L-valinamide]: the IC50 in test [1] turned out to be 1700 nM. Besides, at HIV protease, the inhibition at 10 µM amounted to 100%.

In the case of `C[C@@H](O)[C@H](NC(=O)OCc1ccccc1)C(=O)N[C@@H](Cc1ccccc1)[C@H](O)CNC[C@@H](O)[C@H](Cc1ccccc1)NC(=O)OC(C)(C)C` [Compound 100, [S-[1R*,2S*(2S*,3R*)]-N-[3-[[3-[[(1,1-Dimethylethoxy)carbonyl]amino]-2-hydroxy-4-phenylbutyl]amino]-2-hydroxy-1-(phenylmethyl)-propyl]-N^2 [(phenylmethoxy)carbonyl]-L-threoninamide], the half-inhibitory concentration (IC50) in test [1] was 230 nM. Also, the inhibition at 10 µM at HIV protease turned out to be 99%.

Turning to `CC(C)[C@H](NC(=O)OCc1ccccc1)C(=O)N[C@@H](Cc1ccccc1)[C@H](O)CNC[C@@H](O)[C@H](Cc1ccccc1)NC(=O)[C@@H](NC(=O)OCc1ccccc1)C(C)C` [Compound 42, [1S-(1R*,2S*)]-N,N'-[Iminobis[2-hydroxy-1-(phenylmethyl)-3,1-proanediyl]bis[N^2-[(phenylmethoxy)carbonyl]-L-valinamide]], in test [1], the IC50 was determined as 600 nM. Further, the inhibition at 10 µM on HIV protease came to 100%.

Consider `CC(C)(C)OC(=O)N[C@@H](Cc1ccccc1)[C@H](O)CNC[C@@H](O)[C@H](Cc1ccccc1)NC(=O)[C@@H](NC(=O)OCCOc1ccccc1)C(C)(C)C` [Compound 326, [S-[1R*,2S*(2S*,3R*)]]-[2,2-Dimethyl-1-[[[3-[[3-[[(1,1-dimethylethoxy)carbonyl]amino]-2-hydroxy-4-phenylbutyl]amino]-2-hydroxy-1-(phenylmethyl)propyl]amino]carbonyl]propyl]carbamic acid, (2-(phenyloxy)ethyl ester], for which, in test [1], the IC50 came out at 30 nM. Also, the inhibition at 10 µM on HIV protease came to 99%.

Take `CNC(=O)N(C)[C@H](C(=O)N[C@@H](Cc1ccccc1)[C@H](O)CNC[C@@H](O)[C@H](Cc1ccccc1)NC(=O)OC(C)(C)C)C(C)(C)C` (relative stereo) [Compound 342, [1R*,2S* (2S*, 3R*)]-N-[3-[[3-[[(1,1-Dimethylethoxy)carbonyl]amino]-2-hydroxy-4-phenylbutyl]amino]-2-hydroxy-1-(phenylmethyl)propyl]-N^2-[(methylamino)carbonyl]-N^2-3-dimethyl-L-valinamide]: the IC50 in test [1] was 70 nM. The inhibition at 10 µM at HIV protease turned out to be 99%.

For `CC(C)[C@H](NC(=O)OCc1nc2ccccc2c(=O)[nH]1)C(=O)N[C@@H](Cc1ccccc1)[C@H](O)CNC[C@@H](O)[C@H](Cc1ccccc1)NC(=O)OC(C)(C)C` (relative stereo) [Compound 222, [1R*,2S*(2S*,3R*)]-N^2-[[(3,4-Dyhydro-4-oxo-2-quinazolinyl)methoxy]carbonyl]-N-[3-[[3-[[(1,1-dimethylethoxy)carbonyl]amino]-2-hydroxy-4-phenylbutyl]amino]-2-hydroxy-1-(phenylmethyl)propyl]-L-valinamide], the IC50 in test [1] came to 380 nM. Also, on HIV protease, the inhibition at 10 µM was found to be 98%.

Take `CC(C)(C)OC(=O)N[C@@H](Cc1ccccc1)[C@H](O)CNC[C@@H](O)[C@H](Cc1ccc(OCCN2CCOCC2)cc1)NC(=O)OC(C)(C)C` [Compound 175, [1S-[1R*,2S*(2S*,3R*)]]-[3-[[3-[[(1,1-Dimethylethoxy)carbonyl]amino]-2-hydroxy-4-(4-[2-(4-morpholinyl)ethoxyl-phenyl]butyl]amino]-2-hydroxy-1-(phenylmethyl)propyl]carbamic acid, 1,1-dimethylethyl ester]: in test [1], the IC50 is 30 nM. The inhibition at 10 µM on HIV protease was 99%.

On to `CC(C)(C)OC(=O)N[C@@H](Cc1ccccc1)[C@H](O)CNC[C@@H](O)[C@H](Cc1ccccc1)NC(=O)OCc1ccccc1` [Compound 45, [R-(R*,S*)]-[Iminobis[2-hydroxy-1-(phenylmethyl)-3,1-propandiyl]biscarbamic acid, 1,1-dimethylethylphenylmethyl ester], for which the half-inhibitory concentration (IC50) in test [1] was determined as 500 nM. On HIV protease, the inhibition at 10 µM is 87%.

Take `CC(C)(C)OC(=O)N[C@@H](Cc1ccccc1)[C@H](O)CNC[C@@H](O)[C@H](Cc1ccccc1)NC(=O)C1NC(=O)c2ccccc21` (stereo partly drawn) [Compound 223, [1S-[1R*,2S*(2S*,3R*)]]-[3-[[3-[[(2,3-Dihydro-3-oxo-1H-isoindol-1-yl)carbonyl]amino]-2-hydroxy-4-phenylbutyl]amino]-2-hydroxy-1-(phenylmethyl)propyl]carbamic acid, 1,1-dimethylethyl ester]: the IC50 in test [1] came out at 1400 nM. Further, on HIV protease, the inhibition at 10 µM is 89%.

Regarding `CC(C)(C)OC(=O)N[C@@H](Cc1ccccc1)[C@H](O)CNC[C@@H](O)[C@H](Cc1ccccc1)NC(=O)O[C@H]1CCOC1` [Compound 331, [1S-(1R*,2S*,3R*)]-[Iminobis[2-hydroxy-1-(phenylmethyl)-3,1-propanediyl]]bis[carbamic acid], 3-tetrahydrofuranyl 1,1-dimethylethyl ester], the IC50 in test [1] amounted to 60 nM. For the same compound, the inhibition at 10 µM at HIV protease was 99%.
